This is an account of results in patent US9845308B2, “Isoindoline inhibitors of ROR-gamma” (Vitae Pharmaceuticals, Inc., priority 2014, dated 2017).

A word on the Ki: it is a dissociation constant, usually derived from enzyme kinetics or from competition with a known ligand. Usually IC50 stands for the concentration that gives 50% inhibition.

Test [1] deals with recombinant RORγ Ligand Binding Domain (LBD) protein (Homo sapiens (Human), UniProt P51449). Kind of test: Radio-Ligand RORγ Binding Assay (Assay 1). Particulars: competition with 25-hydroxy[26,27-3H]-cholesterol, SPA; read-out: RORγ Binding Ki Range* (nM) (Assay 1). Here is the method:
Radio-Ligand RORγ Binding Assay (Assay 1)
Compounds of the present invention were tested for ability to bind to RORγ in a cell-free competition assay with commercially available radio-ligand (RL), 25-hydroxy[26,27-^3H]-cholesterol (PerkinElmer, Cat. #NET674250UC), for a ligand binding site on a recombinant RORγ Ligand Binding Domain (LBD) protein expressed as a 6×His-Glutathione-S-Transferase (GST) fusion. […] The plate was shaken at 700 rpm for 20 min and incubated for 10 min at rt, after which 40 μL of poly-Lys YSi SPA beads (PerkinElmer, Cat. #RPNQ0010) were added to achieve 50 μg of the beads per well. The plate was incubated on an orbital shaker for 20 min and then for 10 min without agitation at rt. SPA signal for tritium beta radiation was registered on PerkinElmer Microbeta plate reader. […] The percent inhibition vs. concentration data were fit into a four-parameter model, and IC50 values were calculated from the fit as the concentrations corresponding to the inflection points on the dose-response curves. […]

In test [2] the target is full-length RORγt in Jurkat cells (Homo sapiens (Human), UniProt P51449). The test can be described thus: RORγt 5×RORE Assay in Jurkat Cells (Assay 2). Particulars: 5xRORE secreted Nanoluc luciferase reporter, 16-18 hrs, read-out: RORγt5X IC50 Range* (nM) (Assay 2). Format: cell-based. Here is the method:
[formula] RORγt 5×RORE Assay in Jurkat Cells (Assay 2)
Compounds of the present invention were tested for RORγ inverse agonist activity in a cell-based, transcriptional activity assay. […] (Promega, Cat. #N1021) using KpnI and HindIII restriction sites. […] Tested compounds were added to the cells in the same media (final concentration of DMSO was 0.1% (v/v)), and the plates were incubated at 37° C./5% CO2 for 16-18 hrs. Luciferase activity in the conditioned supernatants was determined with NanoGlo® assay reagents (Promega, Cat.#N1130).
For orientation: Reporter assays use an easily measured gene product as a stand-in for the process of interest.

recombinant RORγ Ligand Binding Domain (LBD) protein, sequence (P51449 269-508): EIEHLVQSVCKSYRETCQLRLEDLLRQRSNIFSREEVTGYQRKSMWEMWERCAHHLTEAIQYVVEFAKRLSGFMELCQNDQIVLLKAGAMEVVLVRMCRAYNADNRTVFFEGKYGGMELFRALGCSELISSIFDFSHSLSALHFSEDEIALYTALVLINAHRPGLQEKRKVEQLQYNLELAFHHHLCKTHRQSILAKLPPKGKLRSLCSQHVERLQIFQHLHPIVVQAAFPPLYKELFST
full-length RORγt in Jurkat cells, sequence (P51449 other isoform, or with tags, fused parts or gaps): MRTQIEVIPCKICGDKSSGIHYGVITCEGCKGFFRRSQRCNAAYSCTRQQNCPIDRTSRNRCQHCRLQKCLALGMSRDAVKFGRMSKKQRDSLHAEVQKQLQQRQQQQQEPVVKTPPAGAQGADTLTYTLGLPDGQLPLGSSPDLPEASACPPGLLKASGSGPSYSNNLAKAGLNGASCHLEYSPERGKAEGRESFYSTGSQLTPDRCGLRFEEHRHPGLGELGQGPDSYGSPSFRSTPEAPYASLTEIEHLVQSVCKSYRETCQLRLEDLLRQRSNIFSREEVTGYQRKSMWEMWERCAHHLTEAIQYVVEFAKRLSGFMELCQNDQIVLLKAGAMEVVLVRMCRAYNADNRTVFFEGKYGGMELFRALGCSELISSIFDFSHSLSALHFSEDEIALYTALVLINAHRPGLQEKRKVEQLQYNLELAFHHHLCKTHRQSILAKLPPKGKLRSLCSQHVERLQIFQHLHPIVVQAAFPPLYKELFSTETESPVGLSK

In the case of `CCO[C@H]1CC[C@H](CN2Cc3cc(C(=O)NCc4ccc(S(=O)(=O)CC)cn4)ccc3[C@@H]2C(C)C)CC1` (single isomer, unassigned) [Compound 7a, 2-((trans-4-ethoxycyclohexyl)methyl)-N-((5-(ethylsulfonyl)pyridin-2-yl)methyl)-1-isopropylisoindoline-5-carboxamide], the inhibition constant (Ki) in test [1] was under 100 nM. In addition, in test [2], the half-maximal inhibitory concentration (IC50) is under 100 nM.
`CCO[C@H]1CC[C@H](CN2Cc3cc(C(=O)NCc4ccc(S(=O)(=O)CC)cn4)ccc3[C@H]2C(C)C)CC1` (single isomer, unassigned) [Compound 7b, 2-((trans-4-ethoxycyclohexyl)methyl)-N-((5-(ethylsulfonyl)pyridin-2-yl)methyl)-1-isopropylisoindoline-5-carboxamide]: in test [1], the Ki was over 1000 nM.
Regarding `CCS(=O)(=O)c1ccc(CNC(=O)c2ccc3c(c2)CN(CC2CCC(O)(C(F)(F)F)CC2)C3C(C)C)cc1` (single isomer, unassigned) [Compound 12a, N-(4-(ethylsulfonyl)benzyl)-2-((4-hydroxy-4-(trifluoromethyl)cyclohexyl)methyl)-1-isopropylisoindoline-5-carboxamide], in test [1], the Ki is under 100 nM. Further, the IC50 in test [2] is under 100 nM.
As to `CCS(=O)(=O)c1ccc(CNC(=O)c2ccc3c(c2)CN(CC2CCC(O)(C(F)(F)F)CC2)C3C(C)C)cc1` (single isomer, unassigned) [Compound 12b, N-(4-(ethylsulfonyl)benzyl)-2-((4-hydroxy-4-(trifluoromethyl)cyclohexyl)methyl)-1-isopropylisoindoline-5-carboxamide], the Ki in test [1] is under 100 nM. Besides, the half-maximal inhibitory concentration (IC50) in test [2] is over 1000 nM.
`CCS(=O)(=O)c1ccc(CNC(=O)c2ccc3c(c2)CN(CC2CCC(O)(C(F)(F)F)CC2)C3C(C)C)cc1` (single isomer, unassigned) [Compound 12c, N-(4-(ethylsulfonyl)benzyl)-2-((4-hydroxy-4-(trifluoromethyl)cyclohexyl)methyl)-1-isopropylisoindoline-5-carboxamide]: the Ki in test [1] was under 100 nM. Besides, in test [2], the IC50 was in the range of 100 to 1000 nM.
For `CCS(=O)(=O)c1ccc(CNC(=O)c2ccc3c(c2)CN(CC2CCC(O)(C(F)(F)F)CC2)C3C(C)C)cc1` (single isomer, unassigned) [Compound 12d, N-(4-(ethylsulfonyl)benzyl)-2-((4-hydroxy-4-(trifluoromethyl)cyclohexyl)methyl)-1-isopropylisoindoline-5-carboxamide], in that order: under 100 nM and under 100 nM.
Consider `CCS(=O)(=O)N1CCC(CNC(=O)c2ccc3c(c2)CN(CC2CCC(OC)(C(F)(F)F)CC2)C3C(C)C)CC1` (single isomer, unassigned) [Compound 13a, N-((1-(ethylsulfonyl)piperidin-4-yl)methyl)-1-isopropyl-2-((4-methoxy-4-(trifluoromethyl)cyclohexyl)methyl)isoindoline-5-carboxamide], for which the Ki in test [1] was under 100 nM. The IC50 in test [2] was 100 to 1000 nM.
For the molecule `CCS(=O)(=O)N1CCC(CNC(=O)c2ccc3c(c2)CN(CC2CCC(OC)(C(F)(F)F)CC2)C3C(C)C)CC1` (single isomer, unassigned) [Compound 13b, N-((1-(ethylsulfonyl)piperidin-4-yl)methyl)-1-isopropyl-2-((4-methoxy-4-(trifluoromethyl)cyclohexyl)methyl)isoindoline-5-carboxamide], the inhibition constant Ki in test [1] was under 100 nM. In addition, the IC50 in test [2] was under 100 nM.
Consider `COC1(C(F)(F)F)CCC(CN2Cc3cc(C(=O)NCC4CCN(S(C)(=O)=O)CC4)ccc3[C@@H]2C(C)C)CC1` (single isomer, unassigned) [Compound 14b], for which, in test [1], the Ki was under 100 nM. Moreover, the IC50 in test [2] is over 1000 nM.
The corresponding values for `CCS(=O)(=O)c1ccc(CNC(=O)c2ccc3c(c2)CN(CC2CCC(C(F)(F)F)OC2)[C@H]3C(C)C)nc1` (single isomer, unassigned) [Compound 16a] are under 100 nM and under 100 nM.
On to `CCS(=O)(=O)c1ccc(CNC(=O)c2ccc3c(c2)CN(CC2CCC(C(F)(F)F)OC2)[C@H]3C(C)C)nc1` (single isomer, unassigned) [Compound 16b], for which the IC50 in test [2] was under 100 nM.
For the molecule `CC[C@H]1c2ccc(C(=O)N[C@@H](COC(N)=O)c3ccc(S(=O)(=O)CC)cc3)cc2CN1C[C@H]1CC[C@H](C(F)(F)F)CC1` (single isomer, unassigned) [Compound 24a], the Ki in test [1] was under 100 nM. For the same molecule, in test [2], the IC50 was under 100 nM.
On to `CC[C@H]1c2ccc(C(=O)N[C@@H](COC(N)=O)c3ccc(S(=O)(=O)CC)cc3)cc2CN1C[C@H]1CC[C@H](C(F)(F)F)CC1` (single isomer, unassigned) [Compound 24b], for which, in test [1], the Ki is under 100 nM. Further, in test [2], the IC50 is over 1000 nM.
Consider `CCS(=O)(=O)c1ccc(CNC(=O)c2ccc3c(c2)C(=O)N(Cc2ccc(C(F)(F)F)cc2)C3C(C)C)cc1` (single isomer, unassigned) [Compound 26a, N-(4-(ethylsulfonyl)benzyl)-1-isopropyl-3-oxo-2-(4-(trifluoromethyl)benzyl)isoindoline-5-carboxamide], for which the Ki in test [1] was under 100 nM. The IC50 in test [2] was under 100 nM.
`CCS(=O)(=O)c1ccc(CNC(=O)c2ccc3c(c2)C(=O)N(Cc2ccc(C(F)(F)F)cc2)C3C(C)C)cc1` (single isomer, unassigned) [Compound 26b, N-(4-(ethylsulfonyl)benzyl)-1-isopropyl-3-oxo-2-(4-(trifluoromethyl)benzyl)isoindoline-5-carboxamide]: the Ki in test [1] was under 100 nM. Further, in test [2], the IC50 is 100 to 1000 nM.
As for `CCS(=O)(=O)c1ccc(CNC(=O)c2ccc3c(c2)CN(C[C@H]2CO[C@H](C(F)(F)F)OC2)[C@H]3C(C)C)nc1` (single isomer, unassigned) [Compound 32a], the Ki in test [1] was under 100 nM. Also, in test [2], the IC50 is under 100 nM.
In the case of `CCS(=O)(=O)c1ccc(CNC(=O)c2ccc3c(c2)CN(C[C@H]2CO[C@H](C(F)(F)F)OC2)[C@H]3C(C)C)nc1` (single isomer, unassigned) [Compound 32b], in test [1], the Ki was under 100 nM. The IC50 in test [2] is over 1000 nM.
For the molecule `CCS(=O)(=O)c1ccc([C@H](CO)NC(=O)c2ccc3c(c2)CN(C[C@H]2CC[C@H](C(F)(F)F)CC2)[C@H]3C(C)C)cc1` [Compound 3a], the Ki in test [1] was under 100 nM. For the same molecule, the half-inhibitory concentration (IC50) in test [2] was under 100 nM.
Take `CCS(=O)(=O)c1ccc([C@H](CO)NC(=O)c2ccc3c(c2)CN(C[C@H]2CC[C@H](C(F)(F)F)CC2)[C@@H]3C(C)C)cc1` [Compound 3b]: the Ki in test [1] was under 100 nM. In addition, the IC50 in test [2] fell in the range of 100 to 1000 nM.
With `CC(C)[C@@H]1c2ccc(C(=O)NCC3CCN(S(C)(=O)=O)CC3)cc2CN1C[C@H]1CC[C@H](C(F)(F)F)CC1` [Compound 4b], in test [1], the inhibition constant (Ki) fell in the range of 100 to 1000 nM.
As to `CCS(=O)(=O)N1CCC(CNC(=O)c2ccc3c(c2)CN(CC2CCC(OC)(C(F)(F)F)CC2)C3C(C)C)CC1` (stereo not drawn) [Compound 13c and 13d, N-((1-(ethylsulfonyl)piperidin-4-yl)methyl)-1-isopropyl-2-((4-methoxy-4-(trifluoromethyl)cyclohexyl)methyl)isoindoline-5-carboxamide], the Ki in test [1] lay within 100 to 1000 nM.
With `CCC1(C)c2ccc(C(=O)NCc3ccc(S(=O)(=O)CC)cc3)cc2C(=O)N1CC1CCC(C(F)(F)F)CC1` (stereo not drawn) [Compound 31, 1-ethyl-N-(4-(ethylsulfonyl)benzyl)-1-methyl-3-oxo-2-((4-(trifluoromethyl)cyclohexyl)methyl)isoindoline-5-carboxamide], in test [1], the Ki was over 1000 nM.
